# In patent US20250127759A1, “METHODS AND DOSING REGIMENS COMPRISING A CDK2 INHIBITOR FOR THE TREATMENT OF CANCER” (PFIZER INC., priority 2021, published 2025):
# Marks after values point to notes of the source that are not given here.
# Legend:
# [1] = test system: MCF7 Cells; experiment: Combination cell proliferation assay, MCF7; type: cell-based, human
# Protocol: (§1) The combination effects of PF-07104091 with palbociclib were evaluated in a cell proliferation assay with MCF7 and T47D BC cell lines. […] Drug combinations were analyzed using the Dose Equivalence Principle, and the Loewe Volume score. When modeling synergy using the Dose Equivalence Principle, the Loewe Volume score for the combination compounds should be greater than the compound self-cross controls, and the Combination Index score for the combination compounds should be less than compound self-cross controls. […] Furthermore, the isobolograms set to an anti-proliferation threshold at 70% confirm a synergistic response.
# [2] = test system: NCI-H526 Model; experiment: In vivo efficacy, NCI-H526 small cell lung cancer model; design: species or system mice
# Protocol: Female NSG (Jackson Lab) or Nu/nu (CRL) were subcutaneously implanted with tumor cells or fragments (8 mm^3 to 27 mm^3) into the dorsal region. For the MCF7 study, mice were supplemented with estrogen (sc implanted, 17β-estradiol, 0.36 mg, 90-day release pellet, Innovative Research of America, cat no. NE-121).
# To establish the NCI-H526 model, tumor cells (4×10^6 cells/mouse with 50% Cultrex® Basement Membrane Matrix) were subcutaneously implanted in female Nu/nu mice. […] PF-07104091, Palbociclib at 10 mg/kg and CDK 2/4/6 inhibitor were administered (p.o.) BID (7 hr apart). TGI was assessed on Day 15 post first dose (or Day 20 post tumor cell implant).
# [3] = test system: HCC1428; experiment: In vivo efficacy, HCC1428 breast cancer model; design: species or system mice; conditions: Day 42, 10 mg/kg BID PO, 10 mg/kg
# Protocol: (§2) The HCC1428 model was established by implanting passage 4 tumor fragments into recipient mice. To establish the HCC1428 donor mice, tumor cells (5×10^6 cell/mouse with 50% Cultrex® Basement Membrane Matrix) were subcutaneously implanted in female NSG mice. […] All mice received treatment continuously until Day 42. TGI was assessed on Day 42 post first dose.
# [4] = test system: T-47D Cells; experiment: Combination cell proliferation assay, T47D; type: cell-based, human
# Protocol: as §1
# [5] = test system: T47D; experiment: In vivo efficacy, T47D breast cancer model; design: species or system mice; conditions: Day 41, 10 mg/kg BID PO
# Protocol: as §2, with “T47D” for “HCC1428”, “3” for “4”, “41.” for “42.”, “41” for “42”
# [6] = test system: ST941PBR PDX; experiment: In vivo efficacy, palbociclib-resistant ST941PBR PDX model; conditions: Day 28, 10 mg/kg BID PO
# Protocol: Female NSG mice (Jackson Lab) were subcutaneously implanted with fragment (27 mm^3 to 64 mm^3 size) into the dorsal region. All mice for T47D, HCC1428 and ST941 PBR studies were supplemented with 8.5 μg/mL estradiol water (β-Estradiol Sigma-Aldrich, cat #E2758-5G) and gave ad libitum till end of study. For the in vivo efficacy studies, tumor volume and body weights were measured twice a week. Tumor volume was calculated using the [(Length×Width×Width)/2)] formula. TGI was calculated as 100*(1−ΔT/ΔC). The ΔC (ΔT) was obtained by subtracting the mean tumor burden in the vehicle (treated) group on the first day of treatment (Day 0) from the mean tumor burden in vehicle (treated) group on the assessment day. Statistical analysis was performed using ANCOVA when the mean tumor volume in vehicle treated mice reached tumor cutoff size.
# The ST941 PBR palbociclib resistant model was obtained from XENOSTART™ LLC, San Antonio, Texas. We established model in house by continuous treatment of the ST941 PBR tumor bearing mice with PD-0332991 at 50 mg/kg, PO QD plus fulvestrant at 10 mg/kg, SC twice in the first week, then weekly thereafter. To propagate donors for the TGI study, tumors were transplanted to recipient mice. One week after the re-implantation, the recipient mice received continuous treatment with palbociclib plus fulvestrant (dosing schedule described above). After 1 to 2 serial in vivo propagation with the same treatment regimen, the resistant tumors in the range of 700 to 800 mm^3 were re-implanted for a study expansion. The remaining tumor fragments were viably frozen for future use.
# The live donor mice were established by implanting ST941 PBR (p11) tumor fragments. Once reaching a range of 700 to 800 mm^3, the donor tumors were subsequently transplanted into secondary recipient mice for a study expansion. To maintain the resistant clones, the ST941 PBR tumor bearing mice were treated with PD-0332991 at 50 mg/kg, PO. QD plus fulvestrant at 10 mg/kg, SC twice in the first week, then weekly afterwards for 10 weeks. […] TGI was assessed on Day 28 post first dose.
smiles,measurement,setting,value
"CC(=O)c1c(C)c2cnc(Nc3ccc(N4CCNCC4)cn3)nc2n(C2CCCC2)c1=O [Palbociclib, palbociclib, reference compound]",Loewe Volume,[1],−0.16
same,Best CI,[1]; Best CI Level 70,0.94
same,TGI %,"[2]; 10 mg/kg BID PO, Day 15",33%
same,TGI %,"[2]; 10 mg/kg BID PO, Day 15, listed as palbociclib",33%
same,TGI %,"[2]; 50 mg/kg SID PO, Day 15",22%
same,TGI %,"[2]; 50 mg/kg SID PO, Day 15, listed as palbociclib",22%
same,TGI %,[3],44* %
same,TGI %,[3]; listed as palbociclib,44%
same,Loewe Volume,[4],−0.25
same,Best CI,[4]; Best CI Level 70,0.96
same,TGI %,[5],72* %
same,TGI %,[6],15%
